# Where no end group is shown, it is not given here.
# Legend:
# [1] = Caco-2 permeability assay (bi-directional); settings: human; for recovery at 120 min / recovery at 120 min, 100 μM: Caco-2, pH 7.4, Mean % Recovery; for recovery at 120 min: positive control
# Protocol: (§1) Cells were seeded on to Millipore Multiscreen Transwell plates at 1×10^5 cells/cm^2. The cells were cultured in DMEM and media was changed every two or three days. On day 20, the permeability study was performed. […] On the day of the assay, the monolayers were prepared by rinsing both basolateral and apical surfaces twice with Hanks Balanced Salt Solution (HBSS) at the desired pH warmed to 37° C. Cells were then incubated with HBSS at the desired pH in both apical and basolateral compartments for 40 min to stabilise physiological parameters.
# (§2) The fluorescent integrity marker lucifer yellow was also included in the dosing solution. Analytical standards were prepared from test compound water dilutions and transferred to buffer, maintaining a ≤1% v/v water concentration. Assay buffer was composed of supplemented HBSS pH 7.4.
# (§3) For assessment of apical to basolateral (A2B) permeability, HBSS was removed from the apical compartment and replaced with test compound dosing solution. The apical compartment insert was then placed into a companion plate containing fresh buffer (containing ≤1% v/v Water). For assessment of B2A permeability, HBSS was removed from the companion plate and replaced with test compound dosing solution. Fresh buffer (containing ≤1% v/v Water) was added to the apical compartment insert, which was then placed into the companion plate.
# (§4) At 120 min, the apical compartment inserts and the companion plates were separated, and apical and basolateral samples diluted for analysis. Test compound permeability was assessed in duplicate. Compounds of known permeability characteristics were run as controls on each assay plate.
# (§5) Test and control compounds were quantified by LC-MS/MS cassette analysis using a 7-point calibration with appropriate dilution of the samples. Cyprotex generic analytical conditions were used. The starting concentration (CO) was determined from the dosing solution and the experimental recovery calculated from CO and both apical and basolateral compartment concentrations.
# (§6) The integrity of the polarised cell monolayers throughout the experiment was checked by monitoring lucifer yellow permeation using fluorometric analysis. Permeation of this paracellular marker is low if monolayers have not been damaged. […] If this was not the case, then the result from the affected monolayer was excluded.
# (§7) The determined concentration (nM≡pmol/mL) of each test sample receiver well is multiplied by the volume of the receiver compartment (apical=0.09 mL, basolateral=0.210 mL) to calculate the amount (pmol) of probe substrate permeating the monolayer.
# (§8) Where dQ/dt is the rate of permeation of the drug across the cells, C0 is the donor compartment concentration at time zero and A is the area of the cell monolayer. C0 was obtained from analysis of the dosing solution.
# (§9) An efflux ratio (ER) was calculated from mean A to B and B to A data. This is derived from:
# (§10) Percentage recovery (mass balance) of the test compound or positive control substrate was calculated by dividing the sum of the amount (pmol) in the receiver and donor compartments post-incubation by the amount in the initial donor solution at time zero (C0) and expressing as a percentage.
# (§11) The insert was inserted into the well of a plate to form an Apical chamber (above cells) and basolateral chamber (below cells), with a permeable membrane between the two layers. Compound was then added to either the apical or basolateral chamber and the passage of it monitored into the other chamber. Transfer of the test compound from the apical to basolateral chamber was indicative of cellular uptake, simulating transition of the compound from the intestinal lumen to the bloodstream by uptake receptors (Direction A). […] An Efflux ratio was then calculated from the values obtained for A2B and B2A transmission.
# [2] = tested on: Caco-2 cells; assay: Caco-2 permeability assay (bi-directional); settings: for Papp Rep 1 / Papp Rep 2 / Papp Mean: 120 min, pH 7.4
# Protocol: as §1, §2, §3, §4, §5, §6, §7, §8, §9, §10, §11
# [3] = known characteristic of control compound; cited from earlier work
# [4] = tested on: Neonatal rat cardiomyocytes; assay: Screening synthetic peptides for alterations to rat cardiomyocyte beat rates; type: cell-based
# Protocol: (§12) The baseline beat rate of neonatal rat and human IPSC-derived cardiomyocytes to be treated with the three synthetic fractions were determined by video microscopy of each well in triplicate using a microscope camera. Average beats/min were calculated from the triplicate readings of three separate wells (n=9). Aliquots of each peptide were taken to treat neonatal rat cardiomyocyte cells at doses of 100, 10, 1 and 0.1 μg/ml. Cells were returned to a humidified incubator at 37° C., 5% CO2 for 2 h. After 2 h the beat rate of the treated cardiomyocyte cells was reassessed using the same method used to obtain the pre-dosing beat data. This process was repeated 24 h after the addition of the synthetic peptides.
# [5] = tested on: Neonatal rat cardiomyocytes; assay: Screening synthetic peptides for thermal stability (rat cardiomyocyte beat rate after heating at 100° C.); type: cell-based; settings: peptide heated to 100° C.
# Protocol: Thermal stability of the three designed synthetics peptides was investigated. The baseline beat rate of neonatal rat cardiomyocytes to be treated with the synthetic fractions were determined by video microscopy of each well in triplicate using a microscope camera. Average beats/min were calculated from the triplicate readings of three separate wells (n=9). Aliquots of each peptide were heated in a heat block at 100° C. before being used to treat rodent cardiomyocyte cells at doses of 100, 10, 1 and 0.1 μg/ml. Cells were returned to the incubator at 37° C., 5% CO2 for 2 h. After 2 h the beat rate of the treated cardiomyocyte cells was reassessed using the same method used to obtain the pre-dosing beat data. This process was repeated 24 h after the addition of the synthetic peptides. The data of the fold changes in cardiomyocyte beat rate following treatment with the heated synthetic fractions were compared to previously obtains fold-changes in beat rate of the unheated synthetic peptides to assess their thermal stability.
# [6] = tested on: Human IPSC-derived cardiomyocytes; assay: Screening synthetic peptides for alterations to human IPSC-derived cardiomyocyte beat rates; type: cell-based; settings: 2 h; dose not stated in the sentence (no increase at 0.1, 1 and 10 μg/ml)
# Protocol: as §12
molecule,measurement,setting,value
"Cc1cc(=O)n(-c2ccccc2)n1C [Antipyrine, antipyrine]",Papp A→B at 120 min,"[1]; Caco-2, pH 7.4",47.1 ×10⁻⁶ cm/s
same,Papp B→A at 120 min,"[1]; Caco-2, pH 7.4",39.6 ×10⁻⁶ cm/s
same,efflux ratio at 120 min,"[1]; Caco-2, pH 7.4",0.84
same,recovery at 120 min,[1]; A2B,90.5%
same,recovery at 120 min,[1]; B2A,87.8%
same,Papp Rep 1,"[2]; A2B, positive control",47.2 ×10^−6 cms^−1
same,Papp Rep 2,"[2]; A2B, positive control",46.9 ×10^−6 cms^−1
same,Papp Rep 1,"[2]; B2A, positive control",38.0 ×10^−6 cms^−1
same,Papp Rep 2,"[2]; B2A, positive control",41.1 ×10^−6 cms^−1
same,human absorption,[3],97%
LKCHKLIPIAWKTK [Synthetic peptide 3],"fold-increases to beat rate, rat cardiomyocytes","[4]; 100 μg/ml, 2 h",three-fold
same,peak increases in rat neonatal cardiomyocyte beat rates,[4]; peak over 0.1-100 μg/ml,3 fold
same,"increases to beat rate, rat cardiomyocytes","[4]; three lower tested concentrations, 2 h",around two-fold
same,maximum fold-increase to beat rate following heating,[5],2.5 fold
LKCHKLVPPVWKT [Synthetic peptide 1],increase to the beat rate of human cardiomyocytes over pre-dosing beat rate,[6],1.5 fold
same,"efflux ratio at 120 min, 100 μM","[1]; Caco-2, pH 7.4",0.137
same,"recovery at 120 min, 100 μM",[1]; A2B,45.5%
same,"recovery at 120 min, 100 μM",[1]; B2A,96.6%
same,toxicity to the Caco-2 cells (lucifer yellow monolayer integrity),[2]; 100 μM,not observed
same,transporter substrate assessment from the efflux ratio,"[2]; 100 μM, efflux ratio 0.137",not a substrate for efflux transporters but could be a possible substrate for uptake transporters
same,Papp Mean,"[2]; A2B, 100 μM",4.60 ×10^−6 cms^−1
same,Papp Rep 1,"[2]; A2B, 100 μM",6.48 ×10^−6 cms^−1
same,Papp Rep 2,"[2]; A2B, 100 μM",2.73 ×10^−6 cms^−1
same,Papp Mean,"[2]; B2A, 100 μM",0.633 ×10^−6 cms^−1
same,Papp Rep 1,"[2]; B2A, 100 μM",0.681 ×10^−6 cms^−1
same,Papp Rep 2,"[2]; B2A, 100 μM",0.584 ×10^−6 cms^−1

# Source: patent US20250204535A1, “Rodenticide” (priority 2022, published 2025)
